# The supplement of paper PMC10307832
# Legend:
# Test in all cases: relative viability (nuclei count vs DMSO), 5 days (fraction); higher = more cells survive
# Entinostat + Crizotinib = compound: Nc1ccccc1NC(=O)c1ccc(CNC(=O)OCc2cccnc2)cc1 [Entinostat] + C[C@@H](Oc1cc(-c2cnn(C3CCNCC3)c2)cnc1N)c1c(Cl)ccc(F)c1Cl [Crizotinib] (partner 1 µM)
# Summary of the method: (§1)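 Relative viability was taken as the ratio of nuclei in treated wells to nuclei in vehicle wells. Lung cancer cell lines in 1536-well plates received compounds by pin tool one day after seeding, either one drug alone or a fixed anchor-drug dose plus five library-drug doses (not always all listed) in √10 steps. Nuclei were counted on 4× images after 5 days of treatment, and values are medians of duplicate plates.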
# Entinostat + Pemetrexed = compound: Nc1ccccc1NC(=O)c1ccc(CNC(=O)OCc2cccnc2)cc1 [Entinostat] + Nc1nc2[nH]cc(CCc3ccc(C(=O)N[C@@H](CCC(=O)O)C(=O)O)cc3)c2c(=O)[nH]1 [Pemetrexed] (partner 0.2 µM)
# Summary of the method: as §1
# SGI-1776 + Crizotinib = compound: CN1CCC(CNc2ccc3ncc(-c4cccc(OC(F)(F)F)c4)n3n2)CC1 [SGI-1776] + C[C@@H](Oc1cc(-c2cnn(C3CCNCC3)c2)cnc1N)c1c(Cl)ccc(F)c1Cl [Crizotinib] (partner 1 µM)
# Summary of the method: as §1
# Entinostat + Luminespib = compound: Nc1ccccc1NC(=O)c1ccc(CNC(=O)OCc2cccnc2)cc1 [Entinostat] + CCNC(=O)c1noc(-c2cc(C(C)C)c(O)cc2O)c1-c1ccc(CN2CCOCC2)cc1 [Luminespib] (partner 0.01 µM)
# Summary of the method: as §1
Cell Line,relative viability (Entinostat + Crizotinib; first compound 0.02 µM),relative viability (Entinostat + Crizotinib; first compound 0.06325 µM),relative viability (Entinostat + Crizotinib; first compound 0.2 µM),relative viability (Entinostat + Crizotinib; first compound 0.6325 µM),relative viability (Entinostat + Crizotinib; first compound 2 µM),relative viability (Entinostat + Pemetrexed; first compound 0.02 µM),relative viability (Entinostat + Pemetrexed; first compound 0.06325 µM),relative viability (Entinostat + Pemetrexed; first compound 0.2 µM),relative viability (Entinostat + Pemetrexed; first compound 0.6325 µM),relative viability (Entinostat + Pemetrexed; first compound 2 µM),relative viability (SGI-1776 + Crizotinib; first compound 0.08 µM),relative viability (SGI-1776 + Crizotinib; first compound 0.8 µM),relative viability (SGI-1776 + Crizotinib; first compound 2.53 µM),relative viability (SGI-1776 + Crizotinib; first compound 8 µM),relative viability (Entinostat + Luminespib; first compound 0.02 µM),relative viability (Entinostat + Luminespib; first compound 0.06325 µM),relative viability (Entinostat + Luminespib; first compound 0.2 µM),relative viability (Entinostat + Luminespib; first compound 0.6325 µM),relative viability (Entinostat + Luminespib; first compound 2 µM)
NCI-H358,0.545,0.519,0.463,0.209,0.0928,0.163,0.168,0.158,0.128,0.135,0.53,0.393,0.244,0.292,0.48,0.484,0.407,0.238,0.159
NCI-H441,0.715,0.744,0.523,0.215,0.181,0.287,0.29,0.255,0.227,0.166,0.701,0.54,0.731,0.61,0.401,0.34,0.29,0.245,0.176
NCI-H460,0.907,0.945,0.522,0.0251,0.0158,0.0727,0.068,0.076,0.0606,0.041,0.973,0.573,0.471,0.0428,0.0255,0.0353,0.0291,0.0258,0.0328
NCI-H520,0.735,0.613,0.779,0.413,0.251,0.644,0.712,0.875,0.689,0.418,0.773,0.828,0.728,0.473,0.192,0.225,0.227,0.281,0.228
NCI-H596,1,0.982,0.992,0.978,0.52,0.499,0.514,0.528,0.439,0.446,1.08,1.06,0.945,0.854,0.836,0.935,0.992,0.905,0.597
NCI-H647,1.1,0.966,0.749,0.301,0.102,0.192,0.184,0.161,0.0878,0.0714,1.16,0.842,0.992,0.291,0.223,0.182,0.23,0.177,0.133
NCI-H650,0.673,0.564,0.586,0.473,0.222,0.952,0.951,0.833,0.794,0.353,0.764,0.704,0.382,0.37,0.824,0.76,0.829,0.672,0.427
NCI-H661,0.907,0.909,1.01,0.834,0.633,0.886,0.916,0.814,0.663,0.354,0.932,1.02,1.03,0.964,0.838,0.868,0.834,0.642,0.493
NCI-H838,0.995,0.818,0.949,0.536,0.229,0.231,0.222,0.268,0.247,0.183,0.885,0.854,0.689,0.319,0.291,0.257,0.291,0.196,0.201
NCI-H1355,1.06,1.01,0.9,0.743,0.599,0.99,0.945,0.874,0.749,0.614,1.1,1.03,1.01,0.935,0.724,0.611,0.616,0.504,0.418
NCI-H1437,0.801,0.641,0.469,0.174,0.109,0.318,0.282,0.231,0.178,0.148,0.869,0.9,1.02,0.952,0.829,0.853,0.552,0.301,0.257
NCI-H1563,0.781,0.907,0.759,0.711,0.735,0.77,0.906,0.837,0.826,0.679,0.833,0.888,0.906,0.785,0.515,0.503,0.478,0.483,0.47
NCI-H1650,0.923,0.928,0.988,0.729,0.359,0.389,0.455,0.44,0.359,0.241,0.86,0.999,0.559,0.231,0.214,0.198,0.185,0.212,0.195
NCI-H1651,0.877,0.9,0.878,0.807,0.721,0.715,0.777,0.655,0.639,0.435,0.866,0.834,0.814,0.879,0.795,1.01,0.742,0.724,0.64
NCI-H1666,0.973,1.16,0.843,0.404,0.321,0.866,0.989,0.913,0.75,0.579,1.08,0.934,0.803,0.668,1.05,1.19,1.04,0.701,0.445
NCI-H1734,0.622,0.709,0.894,0.555,0.423,0.436,0.419,0.492,0.414,0.382,0.658,0.686,0.617,0.402,0.227,0.204,0.185,0.213,0.181
NCI-H1755,0.832,0.827,0.771,0.462,0.347,0.422,0.437,0.407,0.358,0.374,0.863,0.898,0.89,0.808,0.483,0.459,0.678,0.528,0.415

Cell Line,relative viability (Entinostat + Crizotinib; first compound 0.02 µM),relative viability (Entinostat + Crizotinib; first compound 0.06325 µM),relative viability (Entinostat + Crizotinib; first compound 0.2 µM),relative viability (Entinostat + Crizotinib; first compound 0.6325 µM),relative viability (Entinostat + Crizotinib; first compound 2 µM),relative viability (Entinostat + Pemetrexed; first compound 0.02 µM),relative viability (Entinostat + Pemetrexed; first compound 0.06325 µM),relative viability (Entinostat + Pemetrexed; first compound 0.2 µM),relative viability (Entinostat + Pemetrexed; first compound 0.6325 µM),relative viability (Entinostat + Pemetrexed; first compound 2 µM),relative viability (SGI-1776 + Crizotinib; first compound 0.08 µM),relative viability (SGI-1776 + Crizotinib; first compound 0.8 µM),relative viability (SGI-1776 + Crizotinib; first compound 2.53 µM),relative viability (SGI-1776 + Crizotinib; first compound 8 µM),relative viability (Entinostat + Luminespib; first compound 0.02 µM),relative viability (Entinostat + Luminespib; first compound 0.06325 µM),relative viability (Entinostat + Luminespib; first compound 0.2 µM),relative viability (Entinostat + Luminespib; first compound 0.6325 µM),relative viability (Entinostat + Luminespib; first compound 2 µM)
NCI-H1792,0.979,1.04,0.86,0.796,0.569,0.844,0.765,0.896,0.374,0.191,1.04,1.05,0.965,1.09,0.5,0.519,0.362,0.392,0.469
NCI-H1915,0.854,0.869,0.862,0.739,0.328,0.417,0.536,0.475,0.403,0.188,0.945,0.864,0.833,0.918,0.737,0.722,0.821,0.567,0.373
NCI-H1944,0.971,0.756,0.629,0.344,0.249,0.498,0.576,0.465,0.244,0.22,1.1,0.956,1.03,0.867,0.73,0.625,0.397,0.329,0.183
NCI-H1975,0.762,0.778,0.564,0.278,0.201,0.283,0.306,0.27,0.219,0.185,0.999,0.833,0.771,0.441,0.238,0.209,0.217,0.199,0.13
NCI-H1993,0.832,0.848,0.774,0.76,0.597,0.53,0.609,0.558,0.536,0.472,0.917,0.894,0.858,0.725,0.968,1.08,0.925,0.771,0.275
NCI-H2009,0.984,1.06,0.965,0.877,0.556,0.949,0.965,0.963,0.84,0.619,1.04,1.02,1.07,0.675,1.05,0.967,0.974,0.771,0.762
NCI-H2023,0.526,0.596,0.324,0.17,0.109,0.199,0.192,0.152,0.127,0.0994,0.565,0.621,0.56,0.333,0.648,0.528,0.313,0.111,0.0763
NCI-H2085,0.991,0.933,0.769,0.57,0.414,0.826,0.918,0.869,0.712,0.532,0.858,0.767,0.853,0.71,0.414,0.426,0.384,0.278,0.251
NCI-H2087,0.716,0.672,0.818,0.559,0.467,0.68,0.581,0.67,0.613,0.304,0.724,0.907,1.19,0.758,0.157,0.125,0.18,0.127,0.143
NCI-H2126,1.01,1.06,0.954,0.89,0.58,0.71,0.687,0.674,0.405,0.306,1.01,1.04,1.08,0.968,0.815,0.906,0.894,0.766,0.462
NCI-H2170,1.17,1.06,1.02,0.704,0.491,0.255,0.283,0.273,0.228,0.229,1.13,1.28,1.17,0.969,0.778,0.654,0.643,0.47,0.329
NCI-H2228,0.479,0.429,0.337,0.378,0.221,0.316,0.399,0.323,0.271,0.172,0.523,0.417,0.396,0.15,0.187,0.132,0.135,0.184,0.102
NCI-H2347,0.686,0.581,0.653,0.5,0.408,0.442,0.447,0.339,0.369,0.341,0.687,0.637,0.772,0.511,0.337,0.378,0.348,0.193,0.081
NCI-H2405,0.85,0.887,0.906,0.805,0.598,1.06,1.22,1.02,0.978,0.667,0.857,0.809,0.854,0.642,0.789,0.767,0.944,0.808,0.597
NCI-H3122,0.28,0.265,0.319,0.313,0.334,0.186,0.208,0.2,0.171,0.185,0.284,0.3,0.295,0.335,0.129,0.141,0.102,0.0843,0.073
PC-3 [JPC-3],0.965,1.01,0.79,0.658,0.44,1.36,1.05,0.924,0.686,0.461,0.978,1.05,0.981,0.904,0.726,0.668,0.5,0.51,0.365
PC-14,0.849,0.928,0.916,0.37,0.159,0.137,0.163,0.139,0.198,0.146,0.889,0.895,0.96,0.79,0.135,0.256,0.151,0.143,0.114
